From ChEMBL document CHEMBL1201862, “PubChem BioAssay data set” (2004) come the findings set out here.

Assay [1] is described as follows: Luminescence Cell-Based Dose Confirmation HTS to Identify Activators of 5'UTR Stem-Loop Driven Alpha-Synuclein mRNA Translation in H4 Neuroglioblastoma Cells. [Related pubchem assays: 1829 (Project Summary), 1814 (Primary HTS)]. In kind it is functional.
Assay [2] can be described thus: Luminescence Cell-Based Dose Response HTS to Identify Activators of Luciferase Translation or Activity in H4 […] Cells. [Related pubchem assays: 1829 (Project Summary), 1814 (Primary HTS)]. It counts as functional.
Another assay concerns H4. In words: Luminescence Cell-Based Dose Response HTS to Identify Activators of 5'UTR Stem-Loop Driven Prion Protein mRNA Translation in H4 Neuroglioblastoma Cells. [Related pubchem assays: 1829 (Project Summary), 1814 (Primary HTS)]. The settings on record: Homo sapiens. In kind it is functional.
A further assay addresses T1, Aminopeptidase N (Plasmodium falciparum FcB1/Columbia, UniProt O96935).
T1 sequence (O96935 whole entry): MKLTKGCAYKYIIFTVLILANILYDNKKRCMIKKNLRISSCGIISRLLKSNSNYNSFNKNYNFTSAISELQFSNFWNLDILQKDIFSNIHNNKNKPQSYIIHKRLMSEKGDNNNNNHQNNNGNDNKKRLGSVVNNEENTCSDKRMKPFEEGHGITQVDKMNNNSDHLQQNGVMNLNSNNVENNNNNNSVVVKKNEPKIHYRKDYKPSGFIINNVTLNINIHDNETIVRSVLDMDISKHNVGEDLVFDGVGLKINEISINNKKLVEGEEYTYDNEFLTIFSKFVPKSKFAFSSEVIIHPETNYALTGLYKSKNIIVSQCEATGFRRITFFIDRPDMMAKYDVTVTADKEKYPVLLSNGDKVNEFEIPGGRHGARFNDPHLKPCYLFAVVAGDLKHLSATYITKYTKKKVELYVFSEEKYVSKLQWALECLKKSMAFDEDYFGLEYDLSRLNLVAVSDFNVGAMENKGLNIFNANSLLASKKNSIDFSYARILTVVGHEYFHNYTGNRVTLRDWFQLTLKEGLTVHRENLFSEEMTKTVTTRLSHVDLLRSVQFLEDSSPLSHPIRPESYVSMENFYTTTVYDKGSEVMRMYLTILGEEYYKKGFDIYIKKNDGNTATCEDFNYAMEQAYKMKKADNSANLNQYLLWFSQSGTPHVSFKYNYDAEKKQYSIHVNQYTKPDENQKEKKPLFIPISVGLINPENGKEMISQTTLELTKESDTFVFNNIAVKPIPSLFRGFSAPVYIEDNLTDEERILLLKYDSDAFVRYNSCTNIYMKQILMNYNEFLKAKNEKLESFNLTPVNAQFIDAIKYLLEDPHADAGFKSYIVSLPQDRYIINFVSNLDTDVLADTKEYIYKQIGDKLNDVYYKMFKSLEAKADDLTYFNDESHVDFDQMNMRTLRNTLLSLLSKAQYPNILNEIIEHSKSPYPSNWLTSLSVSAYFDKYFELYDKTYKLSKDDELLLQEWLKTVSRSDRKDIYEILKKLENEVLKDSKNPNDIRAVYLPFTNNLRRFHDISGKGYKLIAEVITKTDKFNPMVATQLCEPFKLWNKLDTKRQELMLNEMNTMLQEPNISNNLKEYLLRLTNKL
In words: P. falciparum M1AAP inhibitors, biochemical, fluorogenic H-Leu-NHMec substrate, 1536-well (AID 1445). Set-up: species or system Plasmodium falciparum 3D7, 3D7.

Assay [3] addresses T2, Heat shock factor protein 1 (Mus musculus, UniProt P38532).
T2 sequence (P38532 whole entry): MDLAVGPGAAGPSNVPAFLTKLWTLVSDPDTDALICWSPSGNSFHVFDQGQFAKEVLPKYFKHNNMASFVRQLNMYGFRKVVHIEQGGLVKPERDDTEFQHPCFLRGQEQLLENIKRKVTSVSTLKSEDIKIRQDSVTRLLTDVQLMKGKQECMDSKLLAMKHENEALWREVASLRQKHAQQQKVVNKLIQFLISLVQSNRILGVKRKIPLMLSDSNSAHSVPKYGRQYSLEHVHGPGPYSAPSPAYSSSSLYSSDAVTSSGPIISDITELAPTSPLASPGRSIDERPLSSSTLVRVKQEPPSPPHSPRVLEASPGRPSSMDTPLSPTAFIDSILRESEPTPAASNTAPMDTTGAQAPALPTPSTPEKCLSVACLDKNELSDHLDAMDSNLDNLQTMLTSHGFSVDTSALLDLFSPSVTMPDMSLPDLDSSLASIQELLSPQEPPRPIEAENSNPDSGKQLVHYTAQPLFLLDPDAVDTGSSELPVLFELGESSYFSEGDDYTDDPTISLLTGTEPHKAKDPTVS
In words: inhibition of MG132-induced HSE-luciferase signal, confirmation, cell-based, NIH3T3, luminescence, dose retest (AID 2382).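 Note: NIH3T3 fibroblasts with HSF1-driven luciferase reporter stressed by proteasome inhibitor MG132; luminescence from HSF1-driven luciferase expression after 8 hours of MG132 stress.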 It counts as functional.

A further assay has as its target T3, Protein skinhead-1 (Caenorhabditis elegans, UniProt P34707).
T3 sequence (P34707 whole entry): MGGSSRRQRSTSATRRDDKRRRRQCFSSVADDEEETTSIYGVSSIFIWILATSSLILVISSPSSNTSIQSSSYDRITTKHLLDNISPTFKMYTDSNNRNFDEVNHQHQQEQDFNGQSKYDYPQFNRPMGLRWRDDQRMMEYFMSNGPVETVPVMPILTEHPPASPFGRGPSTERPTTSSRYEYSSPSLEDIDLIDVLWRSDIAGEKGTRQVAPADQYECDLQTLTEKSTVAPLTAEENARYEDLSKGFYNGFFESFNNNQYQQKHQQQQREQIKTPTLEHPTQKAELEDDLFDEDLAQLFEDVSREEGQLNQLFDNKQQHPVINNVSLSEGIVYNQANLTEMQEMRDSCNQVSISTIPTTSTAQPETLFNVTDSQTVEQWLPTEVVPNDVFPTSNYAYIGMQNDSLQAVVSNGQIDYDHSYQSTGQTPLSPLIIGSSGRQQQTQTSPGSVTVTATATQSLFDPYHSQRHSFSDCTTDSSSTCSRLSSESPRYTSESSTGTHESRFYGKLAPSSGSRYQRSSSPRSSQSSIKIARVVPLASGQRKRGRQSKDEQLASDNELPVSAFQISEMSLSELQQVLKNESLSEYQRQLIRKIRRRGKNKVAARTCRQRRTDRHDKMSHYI
It counts as functional.

The target in assay [4] is T4, Histone-lysine N-methyltransferase NSD2 (Homo sapiens, UniProt O96028).
T4 sequence (O96028 whole entry): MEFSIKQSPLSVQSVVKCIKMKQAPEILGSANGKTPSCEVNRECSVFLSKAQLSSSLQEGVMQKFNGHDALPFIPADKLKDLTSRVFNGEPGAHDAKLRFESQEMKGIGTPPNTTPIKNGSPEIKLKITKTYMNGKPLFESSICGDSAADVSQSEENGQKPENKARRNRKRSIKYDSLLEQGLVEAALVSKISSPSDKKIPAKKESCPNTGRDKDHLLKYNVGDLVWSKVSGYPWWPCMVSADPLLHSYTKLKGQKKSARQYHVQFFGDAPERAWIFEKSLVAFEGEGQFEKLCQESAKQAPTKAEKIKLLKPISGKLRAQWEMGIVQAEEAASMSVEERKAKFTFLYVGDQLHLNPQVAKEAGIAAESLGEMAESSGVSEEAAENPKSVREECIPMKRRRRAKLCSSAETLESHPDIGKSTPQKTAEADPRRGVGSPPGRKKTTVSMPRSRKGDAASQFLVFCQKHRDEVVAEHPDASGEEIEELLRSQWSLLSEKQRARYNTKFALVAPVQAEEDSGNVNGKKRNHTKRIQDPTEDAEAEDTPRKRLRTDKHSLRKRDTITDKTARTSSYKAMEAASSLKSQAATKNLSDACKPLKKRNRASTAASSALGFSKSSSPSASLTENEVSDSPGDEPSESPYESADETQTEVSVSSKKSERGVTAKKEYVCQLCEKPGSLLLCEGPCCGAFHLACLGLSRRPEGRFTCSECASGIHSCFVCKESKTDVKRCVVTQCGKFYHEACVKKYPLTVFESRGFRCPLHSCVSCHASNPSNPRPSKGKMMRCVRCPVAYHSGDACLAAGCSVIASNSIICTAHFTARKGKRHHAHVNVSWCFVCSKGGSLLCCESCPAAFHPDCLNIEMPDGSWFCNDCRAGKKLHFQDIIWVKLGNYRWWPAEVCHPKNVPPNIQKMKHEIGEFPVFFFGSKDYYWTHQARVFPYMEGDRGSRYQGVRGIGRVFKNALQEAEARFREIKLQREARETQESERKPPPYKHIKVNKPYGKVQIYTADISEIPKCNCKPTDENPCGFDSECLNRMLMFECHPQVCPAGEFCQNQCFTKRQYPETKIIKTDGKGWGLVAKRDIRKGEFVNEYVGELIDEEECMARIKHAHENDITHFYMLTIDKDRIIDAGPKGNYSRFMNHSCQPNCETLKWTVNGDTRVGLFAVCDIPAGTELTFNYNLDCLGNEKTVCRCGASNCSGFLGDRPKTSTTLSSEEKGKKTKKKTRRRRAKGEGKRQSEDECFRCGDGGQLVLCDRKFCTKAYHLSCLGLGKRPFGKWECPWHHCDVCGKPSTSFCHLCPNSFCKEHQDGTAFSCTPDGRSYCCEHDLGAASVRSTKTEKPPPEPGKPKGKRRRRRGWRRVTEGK
It counts as biochemical.

Assay [5] addresses Luciferin 4-monooxygenase (Photinus pyralis, UniProt P08659). Description: Counter Screen for Luciferase-based Assay Positives. [Related pubchem assays: 620, 618, 411 ].
The next assay deals with HT-1080. In words: cytotoxicity in HT1080 fibrosarcoma cells, cell-based, fluorescence readout (AID 620). In kind it is functional. The conditions noted are these: Homo sapiens.
The nature of assay [6]: inhibitors of intracellular T. cruzi replication, confirmation, NIH3T3 host cells, beta-gal luminescence (AID 2044).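 Note: intracellular parasites grown in NIH/3T3 mouse fibroblasts as host cells; luminescent beta-galactosidase reporter signal from transgenic T. cruzi replicating inside host cells; inhibitors lower the luminescence signal.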 In kind it is functional, cell-based.
The nature of assay [7]: cytotoxicity toward NIH3T3 fibroblasts, dose response, counter-screen, cell-based, ATP luminescence, mouse fibroblasts (AID 2010).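 Note: cells exposed to compound for about 90 hours before reading.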 It counts as functional.
Assay [8] in a line: cytotoxicity in HEK-293T cells, dose response, cytotoxicity control for BCR NF-kB inhibitor project, luminescence, B-cell screen hits (AID 489021).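 Note: HEK-293T cells carrying an NF-kB luciferase reporter; cells exposed to compound for about 14 hours before viability readout.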 In kind it is functional, cell-based.
Assay [9] is described as follows: inhibitors of firefly luciferase expression or activity, dose response, H4 neuroglioma cells, luminescence (AID 1990). It counts as functional, cell-based.
Assay [10] can be described thus: Luminescence Cell-Based Dose Response HTS to Identify Inhibitors of 5'UTR Stem-Loop Driven Prion Protein mRNA Translation in H4 Neuroglioblastoma Cells. [Related pubchem assays: 1827 (Project Summary), 1813 (Primary HTS)]. It counts as functional.
A short description of assay [11]: inhibitors of SNCA 5'UTR-driven reporter translation, confirmation, H4 neuroglioma cells, luminescence (AID 1988). It counts as functional, cell-based.

Calls of active or inactive are those of the source. Cut-off read from the data, not from the text of the source, for most assays here: actives have a measured EC50 and inactives only a lower limit. Bounds are passed on as bounds.

Chain of Luciferin 4-monooxygenase (P08659 whole entry): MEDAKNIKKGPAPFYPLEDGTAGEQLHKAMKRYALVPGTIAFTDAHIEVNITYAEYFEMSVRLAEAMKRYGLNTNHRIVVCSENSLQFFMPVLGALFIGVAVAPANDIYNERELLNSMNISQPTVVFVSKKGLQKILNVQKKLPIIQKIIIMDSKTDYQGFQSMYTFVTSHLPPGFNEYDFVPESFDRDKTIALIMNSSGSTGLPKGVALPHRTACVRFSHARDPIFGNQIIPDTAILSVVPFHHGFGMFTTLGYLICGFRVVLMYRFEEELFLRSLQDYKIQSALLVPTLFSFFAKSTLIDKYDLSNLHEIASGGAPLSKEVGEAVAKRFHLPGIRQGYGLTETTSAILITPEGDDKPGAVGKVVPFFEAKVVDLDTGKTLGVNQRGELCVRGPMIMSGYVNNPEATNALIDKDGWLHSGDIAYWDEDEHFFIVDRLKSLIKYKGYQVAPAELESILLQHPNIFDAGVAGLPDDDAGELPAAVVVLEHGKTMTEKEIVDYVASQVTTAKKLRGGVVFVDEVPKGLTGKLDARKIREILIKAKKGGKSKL

Regarding `CCCCN1C(=O)NC(=O)/C(=C(/C)NNC(=O)Nc2ccccc2)C1=O`, the results for the EC50 (in [1]; in assay [2]; in the assay with H4) were > 120 µM (not active), 14.3 µM (active) and > 120 µM (not active), respectively.
Take `CCc1cc2c(CN3CCN(C)CC3)cc(=O)oc2cc1O`: at Aminopeptidase N, the IC50 is 47.7 µM (active).
Turning to `Cc1ccc2c(c1)c(C)c(C)n2CC(O)Cn1nnc2ccccc21` (stereo unspecified), the 50% effective concentration (EC50) was 20.9 µM (active) in [1], 63.4 µM (active) in assay [2], 22.3 µM (active) in the assay on H4 and > 195 µM (not active) in assay [3]. Moreover, at Protein skinhead-1, the IC50 was > 100 µM (inactive).
Consider `CCCCN(CC)CCNC(=O)c1cc2c(-c3ccccc3F)nn(C)c2s1`, for which the EC50 was 8.55 µM (active) in [1], > 120 µM (not active) in [2] and > 120 µM (not active) in the assay with H4. In assay [4], the AC50 was > 20 µM (inactive).
On to `CCOc1ccc(-c2nnc(-c3ccco3)o2)cc1`, for which the EC50 is < 0.2 µM (active) in assay [5] and > 50 µM (not active) in the assay on HT-1080. Moreover, the concentration for half-maximal inhibition (IC50) on Protein skinhead-1 was 28.9 µM (active).
As to `COc1ccc(-c2ccc(C(C)=O)cc2)cc1[C@H]1[C@H]2C=CC[C@@H](C)[C@@H]2C(=O)N1Cc1ccccc1`, the values for the EC50 in assay [6] and in assay [7] were 1.15 µM (active) and 18.9 µM (active), respectively. For the same compound, the IC50 in assay [8] is > 80 µM (inactive).
Turning to `CO/C(O)=C1\CSC\C1=N\c1ccccc1NC(=O)c1ccccc1C(=O)O`, the EC50 in assay [1] was > 120 µM (not active); in [2] it was > 120 µM (not active); in the assay with H4 it was 119 µM (active).
For `O=C(Nc1ccc2oc(-c3ccccc3)nc2c1)c1cccs1`, the values for the EC50 (in [1]; in assay [2]; in the assay on H4) were < 0.1 µM (active), 0.131 µM (active) and > 120 µM (not active), respectively.
Turning to `O=C(COC(=O)c1cc(S(=O)(=O)Nc2ccccc2Cl)ccc1O)Nc1nc2ccccc2s1`, the IC50 at Aminopeptidase N is 44.4 µM (active).
Still for that read-out and setting: then `O=C(CCCO)N/N=C/c1cc(Br)ccc1O`, with 21.7 µM (active).
For the compound `CCOc1ccc(-c2cc(CCCC(=O)NCCCOC)no2)cc1`, the half-maximal effective concentration (EC50) in [9] was 0.841 µM (active); in [5], > 100 µM (not active); in the assay with HT-1080 it was > 50 µM (not active). Besides, the IC50 in assay [8] was > 80 µM (inactive).
`Cc1ccc(C(=O)NC2CCN(CC(=O)Nc3cccc([N+](=O)[O-])c3)CC2)cc1`: on Aminopeptidase N, the IC50 is 102 µM (active).
Take `Cc1cccc(-n2nc3c(c2NC(=O)C2CC2)CS(=O)(=O)C3)c1C`: the EC50 (in [1]; in assay [2]; in the assay with H4) was > 120 µM (not active) throughout. In addition, the IC50 on Protein skinhead-1 is > 100 µM (inactive).
As to `Cc1c(CCC(=O)O)c(=O)oc2cc3occ(-c4ccccc4)c3cc12`, on Aminopeptidase N, the 50% inhibitory concentration (IC50) is 26.7 µM (active).
With `COc1ccccc1/C=C1\SC(=S)N(CCC(=O)Nc2cc(C)on2)C1=O`, the EC50 in [9] was 30 µM (active); in assay [10] it was 27.8 µM (active); in assay [11] it was > 120 µM (not active). In assay [8], the IC50 was > 80 µM (inactive).
